Results as given in patent publication US4189484A, “Antihypertensive quinazoline derivatives” (priority 1977, dated 1980).

What was measured:
[1] = system: spontaneously hypertensive rats (SHR); test: Antihypertensive effect, oral administration to spontaneously hypertensive rats (mean blood pressure and heart rate); assay type: in vivo, rat; settings: for Change in blood pressure after 3 hrs. from administration: Table 1; for Changes in blood pressure (BP) after oral administration / Changes in heart rate (HR) after oral administration: Table 2, male SHR, n=5, p.o.; for Changes in average blood pressures after administration: Table 3
Procedure: Antihypertensive effect was determined by oral administration of the test compound to spontaneously hypertensive rats (hereinafter referred to as SHR).
These SHR were anesthetized with ether and chronically embedded with a cannula for determination of blood pressure so that one end of the said cannula may be placed in abdominal aorta and the other end thereof may be projected out of dorsal neck. When rats regained their body weight before operation in more than 1 week from operation, the test compound was given. Determination was made by measuring a mean blood pressure and a heart rate under unanesthetized and unrestrained conditions with the cannula connected to an electronic recording system. The test compound was suspended in a 1% tragacanth gum solution to make up a concentration so as to be a volume of 5 ml./kg. and then orally given.

Adrenergic α-receptor = Adrenergic α-receptor blocking effect (inhibition of hypertensive action of i.v. adrenalin hydrochloride); assay type: in vivo, Wistar strain male rats; settings: relative to prazosin
Procedure: Wistar strain male rats, weighing 250-300 g., were used in this experiment. The rat was anesthetized with pentobarbital sodium and fitted in the right femoral artery with a cannula for determination of blood pressure and in the left femoral vein with another cannula for intravenous injection, the former cannula being connected to an electronic recording system to measure a blood pressure.
Adrenergic α-receptor blocking effect was determined upon whether a hypertensive action with intravenous injection of adrenalin hydrochloride at 0.3 or 1 μg./kg. may be reserved by pretreatment with the test compound.

ICR strain male mice = test: in vivo; assay type: in vivo; settings: for No. of deceased animal: 8 animals per group, 1 week
Procedure: (§1) ICR strain male mice, weighing 30-35 g., were deprived of food for 6 hours (water ad libitum) and then used in the experiment. Each group consisted of 8 animals. The test compound was suspended in a 1% tragacanth gum solution so as to be a volume of 40 ml./kg. and orally given. After administration, numbers of deceased animals, changes in body weight and other general states were observed or determined over 1 week.
(§2) Survived mice were autopsyed.

in vivo = assay type: in vivo; settings: mouse, in vivo, po; mice
Procedure: as §1, §2

Structure (SMILES): COc1ccc(C=CC(=O)N2CCN(c3nc(N)c4cc(OC)c(OC)cc4n3)CC2)cc1 [Compound No. 8, 2-[4-(4-Methoxycinnamoyl)-piperazin-1-yl]-4-amino-6,7-dimethoxyquinazoline]
- Change in blood pressure after 3 hrs. from administration ([1]; SHR, p.o., 10 mg./kg., 3 hrs.): -25 mmHg
- α-receptor blocking action as compared with the action of prazosin (Adrenergic α-receptor): 1/100

Structure (SMILES): CCOc1ccc(C=CC(=O)N2CCN(c3nc(N)c4cc(OC)c(OC)cc4n3)CC2)cc1 [Compound No. 10, 2-[4-(4-Ethoxycinnamoyl)-piperazine-1-yl]-4-amino-6,7-dimethoxyquinazoline]
- Change in blood pressure after 3 hrs. from administration ([1]; SHR, p.o., 1 mg./kg., 3 hrs.): -19 mmHg
- Change in blood pressure after 3 hrs. from administration ([1]; SHR, p.o., 10 mg./kg., 3 hrs.): -53 mmHg
- α-receptor blocking action as compared with the action of prazosin (Adrenergic α-receptor): 1/100

Structure (SMILES): COc1cc2nc(N3CCN(C(=O)C=Cc4ccc5c(c4)OCO5)CC3)nc(N)c2cc1OC [Compound No. 16, 2-[4-(3,4-Methylenedioxycinnamoyl)-piperazin-1-yl]-4-amino-6,7-dimethoxyquinazoline]
- Change in blood pressure after 3 hrs. from administration ([1]; SHR, p.o., 10 mg./kg., 3 hrs.): -13 mmHg
- α-receptor blocking action as compared with the action of prazosin (Adrenergic α-receptor): 1/100

Structure (SMILES): COc1cc2nc(N3CCN(C(=O)c4ccco4)CC3)nc(N)c2cc1OC [Prazosin, reference compound]
- time of maximum antihypertensive effect from oral administration ([1]; SHR, p.o.): 1 h
- antihypertensive effect, compound compared with prazosin ([1]; SHR, p.o., in words): approximately equal antihypertensive effect to that of the present quinazoline compound after 3 hours
- Changes in blood pressure (BP) after oral administration ([1]; 0.3 mg./kg., 1 hr.): -34±5.6 mm.Hg.
- Changes in heart rate (HR) after oral administration ([1]; 0.3 mg./kg., 1 hr.): 6.3±3.3 no/min.
- Changes in blood pressure (BP) after oral administration ([1]; 0.3 mg./kg., 3 hrs.): -25±3.5 mm.Hg.
- Changes in heart rate (HR) after oral administration ([1]; 0.3 mg./kg., 3 hrs.): 5.3±4.6 no/min.
- Changes in blood pressure (BP) after oral administration ([1]; 0.3 mg./kg., 6 hrs.): -27±4.4 mm.Hg.
- Changes in heart rate (HR) after oral administration ([1]; 0.3 mg./kg., 6 hrs.): 3.2±3.0 no/min.
- Changes in blood pressure (BP) after oral administration ([1]; 0.3 mg./kg., 24 hrs.): -1±4.3 mm.Hg.
- Changes in heart rate (HR) after oral administration ([1]; 0.3 mg./kg., 24 hrs.): 4.3±4.9 no/min.
- Changes in blood pressure (BP) after oral administration ([1]; 1 mg./kg., 1 hr.): -46±2.9 mm.Hg.
- Changes in heart rate (HR) after oral administration ([1]; 1 mg./kg., 1 hr.): 7.0±4.4 no/min.
- Changes in heart rate (HR) after oral administration ([1]; 1 mg./kg., 3 hrs.): 1.5±2.8 no/min.
- Changes in blood pressure (BP) after oral administration ([1]; 1 mg./kg., 6 hrs.): -31±2.9 mm.Hg.
- Changes in heart rate (HR) after oral administration ([1]; 1 mg./kg., 6 hrs.): -9.8±6.1 no/min.
- Changes in blood pressure (BP) after oral administration ([1]; 1 mg./kg., 24 hrs.): -6±1.9 mm.Hg.
- Changes in heart rate (HR) after oral administration ([1]; 1 mg./kg., 24 hrs.): -3.9±2.8 no/min.
- Changes in blood pressure (BP) after oral administration ([1]; 3 mg./kg., 1 hr.): -50±6.5 mm.Hg.
- Changes in heart rate (HR) after oral administration ([1]; 3 mg./kg., 1 hr.): 12.7±7.8 no/min.
- Changes in blood pressure (BP) after oral administration ([1]; 3 mg./kg., 3 hrs.): -31±5.8 mm.Hg.
- Changes in heart rate (HR) after oral administration ([1]; 3 mg./kg., 3 hrs.): 17.8±7.7 no/min.
- Changes in blood pressure (BP) after oral administration ([1]; 3 mg./kg., 6 hrs.): -34±6.2 mm.Hg.
- Changes in heart rate (HR) after oral administration ([1]; 3 mg./kg., 6 hrs.): 9.4±8.3 no/min.
- Changes in blood pressure (BP) after oral administration ([1]; 3 mg./kg., 24 hrs.): -3± 5.8 mm.Hg.
- Changes in heart rate (HR) after oral administration ([1]; 3 mg./kg., 24 hrs.): 26.8±8.3 no/min.
- Changes in average blood pressures after administration ([1]; SHR, p.o., 1 mg./kg., 1 hr.): -46 mmHg
- Changes in average blood pressures after administration ([1]; SHR, p.o., 1 mg./kg., 3 hrs.): -37 mmHg
- Changes in average blood pressures after administration ([1]; SHR, p.o., 1 mg./kg., 6 hrs.): -31 mmHg
- Changes in average blood pressures after administration ([1]; SHR, p.o., 1 mg./kg., 24 hrs.): -6 mmHg
- Changes in average blood pressures after administration ([1]; SHR, p.o., 3 mg./kg., 1 hr.): -50 mmHg
- Changes in average blood pressures after administration ([1]; SHR, p.o., 3 mg./kg., 3 hrs.): -31 mmHg
- Changes in average blood pressures after administration ([1]; SHR, p.o., 3 mg./kg., 6 hrs.): -34 mmHg
- Changes in average blood pressures after administration ([1]; SHR, p.o., 3 mg./kg., 24 hrs.): -3 mmHg
- No. of deceased animal (ICR strain male mice; p.o., 1,250 mg./kg.): 0
- No. of deceased animal (ICR strain male mice; p.o., 2,500 mg./kg.): 0
- No. of deceased animal (ICR strain male mice; p.o., 5,000 mg./kg.): 0

Structure (SMILES): COc1cc2nc(N3CCN(C(=O)C=Cc4ccco4)CC3)nc(N)c2cc1OC [compound 28, 2-{4-[3-(Furan-2-yl)-acryloyl]-piperazin-1-yl}-4-amino-6,7-dimethoxyquinazoline]
- Changes in average blood pressures after administration ([1]; SHR, p.o., 1 mg./kg., 1 hr.): -51 mmHg
- Changes in average blood pressures after administration ([1]; SHR, p.o., 1 mg./kg., 3 hrs.): -31 mmHg
- Changes in average blood pressures after administration ([1]; SHR, p.o., 1 mg./kg., 6 hrs.): -38 mmHg
- Changes in average blood pressures after administration ([1]; SHR, p.o., 1 mg./kg., 24 hrs.): -11 mmHg
- Changes in average blood pressures after administration ([1]; SHR, p.o., 3 mg./kg., 1 hr.): -74 mmHg
- Changes in average blood pressures after administration ([1]; SHR, p.o., 3 mg./kg., 3 hrs.): -38 mmHg
- Changes in average blood pressures after administration ([1]; SHR, p.o., 3 mg./kg., 6 hrs.): -43 mmHg
- Changes in average blood pressures after administration ([1]; SHR, p.o., 3 mg./kg., 24 hrs.): -15 mmHg
- LD50 at 168 h (in vivo): > 5000 mg/kg
- Body weight gain after 7 days (ICR strain male mice; p.o., 1,250 mg./kg.): +2.6 g.
- No. of deceased animal (ICR strain male mice; p.o., 1,250 mg./kg.): 0
- Body weight gain after 7 days (ICR strain male mice; p.o., 2,500 mg./kg.): +3.0 g.
- No. of deceased animal (ICR strain male mice; p.o., 2,500 mg./kg.): 0
- Body weight gain after 7 days (ICR strain male mice; p.o., 5,000 mg./kg.): +0.2 g.
- No. of deceased animal (ICR strain male mice; p.o., 5,000 mg./kg.): 0

Structure (SMILES): COc1cc2nc(N3CCN(C(=O)C=Cc4ccncc4)CC3)nc(N)c2cc1OC [compound 45, 2-{4-[3-(Pyridin-4-yl)-acryloyl]-piperazin-1-yl}-4-amino-6,7-dimethoxyquinazoline]
- Changes in average blood pressures after administration ([1]; SHR, p.o., 3 mg./kg., 1 hr.): -9 mmHg
- Changes in average blood pressures after administration ([1]; SHR, p.o., 3 mg./kg., 3 hrs.): -5 mmHg
- Changes in average blood pressures after administration ([1]; SHR, p.o., 3 mg./kg., 6 hrs.): -12 mmHg
- Changes in average blood pressures after administration ([1]; SHR, p.o., 3 mg./kg., 24 hrs.): 0 mmHg

Structure (SMILES): COc1cc2nc(N3CCCN(C(=O)C=Cc4ccco4)CC3)nc(N)c2cc1OC [compound 46, 2-{4-[3-(Furan-2-yl)-acryloyl]-homopiperazin-1-yl}-4-amino-6,7-dimethoxyquinazoline]
- Changes in average blood pressures after administration ([1]; SHR, p.o., 3 mg./kg., 1 hr.): -20 mmHg
- Changes in average blood pressures after administration ([1]; SHR, p.o., 3 mg./kg., 3 hrs.): -10 mmHg
- Changes in average blood pressures after administration ([1]; SHR, p.o., 3 mg./kg., 6 hrs.): -12 mmHg
- Changes in average blood pressures after administration ([1]; SHR, p.o., 3 mg./kg., 24 hrs.): -8 mmHg

Structure (SMILES): COc1cc2nc(N3CCCN(C(=O)C=Cc4cccs4)CC3)nc(N)c2cc1OC [compound 47, 2-{4-[3-(Thiophen-2-yl)-acryloyl]-homopiperazin-1-yl}-4-amino-6,7-dimethoxyquinazoline]
- Changes in average blood pressures after administration ([1]; SHR, p.o., 3 mg./kg., 1 hr.): -22 mmHg
- Changes in average blood pressures after administration ([1]; SHR, p.o., 3 mg./kg., 3 hrs.): -13 mmHg
- Changes in average blood pressures after administration ([1]; SHR, p.o., 3 mg./kg., 6 hrs.): -17 mmHg
- Changes in average blood pressures after administration ([1]; SHR, p.o., 3 mg./kg., 24 hrs.): 2 mmHg

Structure (SMILES): COc1cc2nc(N3CCCN(C(=O)C=Cc4cccnc4)CC3)nc(N)c2cc1OC [compound 48, 2-{4-[3-(Pyridin-3-yl)-acryloyl]-homopiperazin-1-yl}-4-amino-6,7-dimethoxyquinazoline]
- Changes in average blood pressures after administration ([1]; SHR, p.o., 3 mg./kg., 1 hr.): -9 mmHg
- Changes in average blood pressures after administration ([1]; SHR, p.o., 3 mg./kg., 3 hrs.): 0 mmHg
- Changes in average blood pressures after administration ([1]; SHR, p.o., 3 mg./kg., 6 hrs.): 0 mmHg
- Changes in average blood pressures after administration ([1]; SHR, p.o., 3 mg./kg., 24 hrs.): 2 mmHg
